From patent US4451485A, “Treatment of cardio-vascular diseases with 3-(2,2,2-trimethylhydrazinium) propionate dihydrate” (Institu Organicheskogo Sinteza Akademii Nauk Latviiskoi SSR, priority 1981, dated 1984)
“And” between values parts separate entries of the source, which are not always exact repeats. Equal entries are not always repeated.

Experiments:
[1] = Variation of arrhythmogenic and lethal doses of CaCl2 in mice; format: in vivo, white mice
Method: Thus, the effect of the preparation according to the present invention has been studied relative to the variation of arrhythmogenic and lethal doses of calcium chloride. An experiment was carried out on white mice of both sexes weighing 19-28 g which were narcotized by urethane and an ECG was remetered in transthoracic lead. A 2% solution of calcium chloride was administered to the test animals into the tail vein at a constant rate (0.1 ml for 15 seconds). The average dose of calcium chloride causing the appearance of arrhythmia and heart arrest was determined. In the test groups, the studied compounds were administered 45, 60, 120, 180 and 240 minutes before the beginning of administration of calcium chloride (Table 1).
Variation of arrthythmogenic and lethal doses of CaCl2
with time after administration of the studied
pharmaceutical compositions in experiments on mice.

[2] = Aconitine arrhythmia in rats after repeated peroral administration; format: in vivo, white rats
Method: The antiarrhythmic activity was studied in experiments on white rats of both sexes with a mass of 190 to 230 g narcotized by urethane. An ECG was recorded for these animals. Into the femoral vein of the rats, aconitine was introduced at a constant rate and its arrhythmogenic and lethal doses were determined along with their variation under the protective effect of the preparation according to the present invention.

[3] = Variation of the arrhythmogenic dose of Strophanthin G in rabbits; format: in vivo
Method: The effect of the preparation according to the present invention on the variation of the arrhythmogenic dose of Strophanthin G was studied in experiments on rabbits of both sexes with a mass of […] administered with Strophanthin G at a dose of 60 μg/kg into the marginal auricular vein and, after every 5-10 minutes, at a dose of 5-10 μg/kg until the appearance of a stable ventricular extrasystole. In the test groups 20-30 minutes before administration of the glycoside a solution of 3-(2,2,2-trimethylhydrazinium)propionate was prophylactically administered intravenously. The ECG was recorded in II standard lead.
At a further increase of the dose to the preparation to the present invention, its protective effect was increased too.

[4] = Threshold of electric fibrillation of auricles and ventricles in cats; format: in vivo
Method: Furthermore, the preparation according to the present invention was tested for specific antiarrhythmic and antianginal effects. […] The effect of the novel pharmaceutical composition according to the present invention was studied on cats weighing 2.9-3.6 kg. The preparation was used as a 10% aqueous solution containing 3-(2,2,2-trimethylhydrazinium)propionate for the determination of the threshold value of electric fibrillation of auricles and ventricles. Under artificial respiration after opening of the thorax and pericardium, needle-like electrodes were applied to the right auricula and apex of the left ventricle. The irritation was effected by square pulses of 1 m.s., 15 st/s.
For the comparison of preparations, as the criterion of the range of therapeutic effect, there was used the ratio of the half-lethal dose to the half-effective dose (LD50 /ED50) which was referred to as the antiarrhythmic index. […] The comparative study of the antiarrhythmic activity of pharmaceutical preparations using an acotine model of arrhythmia was effected in experiments on white rats weighing 190-240 g. The test preparations were administered intraperitoneally 10-40 minutes before administration of aconitine.

[5] = Coronary circulation and hemodynamics in narcotized cats; format: in vivo
Method: In acute experiments on narcotized cats with a mass of from 2.9 to 4.1 kg under artificial respiration, arterial pressure was recorded in the common carotide artery, central venous pressure in the right auricle, volume rate of blood flow in the ascending aortic arch and volume rate of the coronary blood flow. At the same time, there was recorded the content of oxyhemoglobin in venous coronary blood.

salmoneallae = assay: Mutagenous activity on salmonellae; details: dihydrate
[6] = Antianginal effect in patients, intravenous; format: in vivo; details: 0.2 to 0.4 g intravenous
Method: The antianginal and antiarrhythmic effects of the preparation according to the present invention were evaluated with the use of the injection pharmaceutical form of the preparation administered intravenously in an amount of 0.2 to 0.4 g based on the active ingredient.

[7] = Clinical tests on patients with various kinds of pathology; details: human, in vivo
From the text: The pharmaceutical preparation according to the present invention can be useful in the treatment of such diseases as heart insufficiency, valvular defects, myocarditises, cardiosclerosis, ischemic heart disease, rhythm disturbances of different genesis. […] The preparation according to the present invention has been tested in experiments on animals and in clinics on patients with various kinds of pathology.
The preparation has been studied on more than 65 patients suffering from various pathology of the cardio-vascular systems such as heart rhythm disturbances (arrhythmia) of different etiology, ischemic heart disease, stenocardia, and atherosclerosis.

[8] = 10 mg/kg intraperitoneal, 60 minutes
[9] = 10 mg/kg intraperitoneal, 120 minutes
[10] = 10 mg/kg intraperitoneal, 180 minutes
[11] = 30 mg/kg intraperitoneal, 60 minutes
[12] = 30 mg/kg intraperitoneal, 180 minutes
[13] = 30 mg/kg intraperitoneal, 240 minutes

For C[N+](C)(C)NCCC(=O)[O-] [3-(2,2,2-trimethylhydrazinium)propionate], the “Arrhythmogenic dose of CaCl2” value ([1]; 10 mg/kg intraperitoneal, 45 minutes before CaCl2, control 85) was 91.5 mg/kg, the “Lethal dose of CaCl2” value ([1]; 10 mg/kg intraperitoneal, 45 minutes before CaCl2, control 100.9) was 101.7 mg/kg and the “Arrhythmogenic dose of CaCl2” value [1, 8] was 103.4 mg/kg. For the same compound, the “Lethal dose of CaCl2” value [1, 8] was 122.2 mg/kg, the “Arrhythmogenic dose of CaCl2” value [1, 9] was 111.9 mg/kg and the “Lethal dose of CaCl2” value [1, 9] was 130 mg/kg. The “Arrhythmogenic dose of CaCl2” value [1, 10] was 110.1 mg/kg, the “Lethal dose of CaCl2” value [1, 10] was 116 mg/kg and the “Arrhythmogenic dose of CaCl2” value [1, 11] was 106.7 mg/kg. For the same compound, the “Lethal dose of CaCl2” value [1, 11] was 122.8 mg/kg, the “Arrhythmogenic dose of CaCl2” value [1, 12] was 117.5 mg/kg and the “Lethal dose of CaCl2” value [1, 12] was 130.2 mg/kg. The “Arrhythmogenic dose of CaCl2” value [1, 13] was 121.9 mg/kg, the “Lethal dose of CaCl2” value [1, 13] was 128 mg/kg and the “Effect on arrhythmogenic and lethal doses of calcium chloride” value ([1]; single intraperitoneal administration) was “increases the arrhythmogenic and lethal doses of calcium chloride”. For the same compound, the “Aconitine dose variation, arrhythmogenic” value ([2]; 25 mg/kg perorally, 1 week) was 38.7%, the “Aconitine dose variation, lethal” value ([2]; 25 mg/kg perorally, 1 week) was 27.6% and the “Aconitine dose variation, arrhythmogenic” value ([2]; 25 mg/kg perorally, 2 weeks) was 42.26%. The “Aconitine dose variation, lethal” value ([2]; 25 mg/kg perorally, 2 weeks) was 24.7%, the “Aconitine dose variation, arrhythmogenic” value ([2]; 100 mg/kg perorally, 1 week) was 55.6% and the “Aconitine dose variation, lethal” value ([2]; 100 mg/kg perorally, 1 week) was 16.2%. The “Aconitine dose variation, arrhythmogenic” value ([2]; 100 mg/kg perorally, 2 weeks) was 34.6%, the “Aconitine dose variation, lethal” value ([2]; 100 mg/kg perorally, 2 weeks) was 9.7% and the “Protective effect against aconitine” value ([2]; peroral) was “pronounced protective effect”. The Duration of arrhythmia ([3]; 10 mg/kg intravenously, control 20 ± 10) was 12 ± 6 min, the “Arrhythmogenic dose of Strophanthin” value ([3]; 10 mg/kg intravenously, control 67 ± 9) was 0.09 ± 0.015 mg/kg and the “Arrhythmogenic dose of Strophanthin” value ([3]; 25 mg/kg intravenously) was 0.1 ± 0.01 mg/kg. The Duration of arrhythmia ([3]; 25 mg/kg intravenously) was 8 ± 5 min, the “Arrhythmogenic dose of Strophanthin” value ([3]; 50 mg/kg intravenously) was 0.106 ± 0.012 mg/kg and the Duration of arrhythmia ([3]; 50 mg/kg intravenously) was 15 ± 8 min. The “Increase of the threshold of electrical fibrillation of auricle and ventricles” value ([4]; 6 to 15 mg/kg intravenous) was 40-55%, the ED50 ([4]; Felis catus, iv, read-out: ED50, electric irritation of cat's heart) was 10 ± 3.5 mg/kg and the “Antiarrhythmic index LD50/ED50, electric irritation of cat's heart” value ([4]; intravenous) was 443 and 433. For the same compound, the “Change of arterial pressure” value ([5]; 2 mg/kg) was 0 + -5%, the “Change of central venous pressure” value ([5]; 2 mg/kg) was 0% and the “Change of heart output” value ([5]; 2 mg/kg) was 0 + +5%. For the same compound, the Increase duration ([5]; 2 mg/kg) was 20 min, the “Volume rate, percent of increase” value ([5]; 2 mg/kg) was 15% and the “Change of central venous pressure” value ([5]; 10 mg/kg) was -5%. For the same compound, the “Change of heart output” value ([5]; 10 mg/kg) was “+5 - 10%”, the Increase duration ([5]; 10 mg/kg) was 45 min and the “Volume rate, percent of increase” value ([5]; 10 mg/kg) was 40%. The “Change of arterial pressure” value ([5]; 25 mg/kg) was -8 - +5%, the “Change of central venous pressure” value ([5]; 25 mg/kg) was -10% and the “Change of heart output” value ([5]; 25 mg/kg) was “+10 - 20%”. For the same compound, the Increase duration ([5]; 25 mg/kg) was 70 min, the “Volume rate, percent of increase” value ([5]; 25 mg/kg) was 55% and the “Therapeutical index higher than carbocromene” value ([5]; 314 vs. 130) was “approximately 3 times”. The “Saturation of the venous blood of coronary sinus with oxygen” value ([5]; in vivo) was “lastingly increase saturation of the venous blood of coronary sinus with oxygen”, the Therapeutical index ([5]; in vivo) was 314 and the Mutagenous activity (salmoneallae) was “does not have mutagenous activity”. The “Stability of analgesic effect” value [6] was “not always stable”, the “Effect on retrosternal pains” value ([6]; 8 cases in 5 patients) was “rapidly cut short retrosternal pains” and the “Therapeutic effects in paroxysmal tachycardia, fibrillation, A-V block and paroxysms” value [7] was “positive, though less pronounced, effects”. The “Therapeutic results in chronic decompensation (rheumatic valvular defects) and acute circulatory insufficiency (myocardial infarction)” value [7] was “Especially pronounced therapeutic results”.
